Patent US20250382296A1, “NITROGEN-CONTAINING FUSED THREE RING PRMT5 INHIBITOR, AND PREPARATION METHOD THEREFOR AND PHARMACEUTICAL USE THEREOF” (Abbisko Therapeutics Co., Ltd., priority 2022, published 2025)

Key:
[1] = tested on: HCT 116 wild-type MTAP cells; test: Inhibition of proliferation of HCT116 wild-type MTAP cells (CellTiter-Glo, 6 days); type: cell-based; details: Homo sapiens, HCT-116, 144 h
Procedure: (§1) 1. HCT 116 MTAP-knockout cells and HCT 116 wild-type MTAP cells were plated in 96-well flat-bottom plates and cultured overnight at 37° C. and […] in McCoy's 5A medium containing 10% fetal bovine serum+1% penicillin-streptomycin.
(§2) 2. The next day, compounds were each dissolved in DMSO, diluted successively with DMSO and medium and then transferred to cell plates; the final concentration of each compound was 10 μM, 4-fold dilution was performed to obtain 9 concentration points, and a DMSO control was provided.
(§3) 3. Cells not treated with compound were subjected to CellTiter-Glo Luminescent Cell Viability Assay (Promega) to detect the cell viability, and reference was made to the kit instructions for the operation; the plates were then placed on an EnVision Multilabel Reader to detect luminescence signals.
(§4) 4. Meanwhile, the cell plates containing cells treated with compounds were cultured continuously at 37° C. and […] CO2 for 6 days.
(§5) 5. Then, the cell viability was also detected by CellTiter-Glo.
(§6) 6. Finally, dose response curves were plotted using the four parameter dose response curve module of GraphPad Prism v 9.2.0 software and proliferation inhibition IC50 (unit: nM) was calculated.

[2] = tested on: HCT 116 MTAP-knockout cells; test: Inhibition of proliferation of HCT116 MTAP-knockout cells (CellTiter-Glo, 6 days); type: cell-based, human; details: for IC50: Homo sapiens, HCT-116, 144 h, proliferation inhibition, HCT116 MTAP-knockout, 6 days, CellTiter-Glo; for Selectivity: IC50 HCT116 wild-type cells / IC50 HCT116 MTAP-knockout cells
Procedure: as §1, §2, §3, §4, §5, §6

SMILES | IC50 [1] | IC50 [2] | Selectivity [2]
Nc1nc2ccc(C(=O)N(Cc3ccc(C(F)(F)F)nn3)CC3CC3)cc2n2cncc12 [Example 156, 4-amino-N-(cyclopropylmethyl)-N-((6-(trifluoromethyl)pyridazin-3-yl)methyl)imidazo[1,5-a]quinoxaline-8-carboxamide] | 1.61 µM | 0.01 µM | 160.7
Nc1nc2cc(F)c(C(=O)N(Cc3ccc(C(F)(F)F)cn3)CC3CC3)cc2n2cncc12 [Example 163, 4-amino-N-(cyclopropylmethyl)-7-fluoro-N-((5-(trifluoromethyl)pyridin-2-yl)methyl)imidazo[1,5-a]quinoxaline-8-carboxamide] | 0.33 µM | 0.006 µM | 55
Cc1cc2nc(N)c3cncn3c2cc1C(=O)N(Cc1ccc(C(F)(F)F)cn1)CC1CC1 [Example 164, 4-amino-N-(cyclopropylmethyl)-7-methyl-N-((5-(trifluoromethyl)pyridin-2-yl)methyl)imidazo[1,5-a]quinoxaline-8-carboxamide] | 0.706 µM | 0.008 µM | 88.3
Nc1nc2cc(Cl)c(C(=O)N(Cc3ccc(C(F)(F)F)cn3)CC3CC3)cc2n2cncc12 [Example 165, 4-amino-7-chloro-N-(cyclopropylmethyl)-N-((5-(trifluoromethyl)pyridin-2-yl)methyl)imidazo[1,5-a]quinoxaline-8-carboxamide] | 0.358 µM | 0.011 µM | 32.5
Cc1ncc2c(N)nc3ccc(C(=O)N(Cc4ccc(C(F)(F)F)cn4)CC4CC4)cc3n12 [Example 167, 4-amino-N-(cyclopropylmethyl)-1-methyl-N-((5-(trifluoromethyl)pyridin-2-yl)methyl)imidazo[1,5-a]quinoxaline-8-carboxamide] | 2.71 µM | 0.074 µM | 36.6
Cc1ncc2c(N)nc3cc(F)c(C(=O)N(Cc4ccc(C(F)(F)F)cn4)CC4CC4)cc3n12 [Example 168, 4-amino-N-(cyclopropylmethyl)-7-fluoro-1-methyl-N-((5-(trifluoromethyl)pyridin-2-yl)methyl)imidazo[1,5-a]quinoxaline-8-carboxamide] | 7.91 µM | 0.111 µM | 71.3
Cc1cc2nc(N)c3cnc(C)n3c2cc1C(=O)N(Cc1ccc(C(F)(F)F)cn1)CC1CC1 [Example 169, 4-amino-N-(cyclopropylmethyl)-1,7-dimethyl-N-((5-(trifluoromethyl)pyridin-2-yl)methyl)imidazo[1,5-a]quinoxaline-8-carboxamide] | 1.88 µM | 0.035 µM | 53.6
CN(C(=O)c1ccc2nc(N)c3cncn3c2c1)C1COCc2cc(C(F)(F)F)ccc21 (stereo not drawn) [Example 179, 4-amino-N-methyl-N-(7-(trifluoromethyl)isochroman-4-yl)imidazo[1,5-a]quinoxaline-8-carboxamide] | 3.72 µM | 0.067 µM | 55.5
Nc1nc2ccc(C(=O)N(CC3CC3)[C@@H]3COc4nc(C(F)(F)F)ccc43)cc2n2cncc12 [Example 181a, (S)-4-amino-N-(cyclopropylmethyl)-N-(6-(trifluoromethyl)-2,3-dihydrofuro[2,3-b]pyridin-3-yl)imidazo[1,5-a]quinoxaline-8-carboxamide] | 5.1 µM | 0.33 µM | 15.5
Cc1cc2nc(N)c3cncn3c2cc1C(=O)N(c1cnn(C)c1)[C@@H]1COc2nc(C(F)(F)F)ccc21 [Example 206a, (S)-4-amino-7-methyl-N-(1-methyl-1H-pyrazol-4-yl)-N-(6-(trifluoromethyl)-2,3-dihydrofuro[2,3-b]pyridin-3-yl)imidazo[1,5-a]quinoxaline-8-carboxamide] | 2.23 µM | 0.041 µM | 54.5
